Experimental data taken from patent publication US20250134860A1, “NOVEL COMPOUND, AND COMPOSITION FOR PREVENTING, ALLEVIATING OR TREATING BACTERIAL INFLAMMATION AND INFLAMMASOME-MEDIATED DISEASES, COMPRISING SAME AS ACTIVE INGREDIENT” (Quorum Bio Co., Ltd., priority 2022, published 2025).
Where “and” joins values, the source holds several entries; their conditions need not be identical. Equal values may be shown once.

Legend:
[1] = test system: gingipain genes (rgpA, rgpB, kgp); assay: Inhibitory effect on gingipain expression of P. gingivalis (RT-qPCR); format: cell-based, Porphyromonas gingivalis; conditions: DPD 10 μM + compound 2 μM; 48 hours; normalized to 16s rRNA
Protocol: The compounds of Examples were respectively treated onto the medium cultured with P. gingivalis, and the expression levels of three gingipain proteins (lysine-gingipain (Kgp), arginine-gingipain A (RgpA), and arginine-gingipain B (RgpB)) produced by P. gingivalis, which are major virulence factors and proteolytic enzymes, were confirmed.
The culture medium containing 10 μM of DPD (4,5-dihydroxy-2,3-pentane dione), which is a precursor of the bacterial signal substance (Autoinducer-2), and the culture medium containing 2 μM of the example compound or not were respectively dispensed into a cell culture plate (48 well plate), and then P. gingivalis (2×10^8 cell/ml) were inoculated for each group. The culture medium cultured with bacteria was cultured at 37° C. under anaerobic conditions (10% H2, 10% CO2, and 80% N2) for 48 hours.
After 48 hours, each culture medium was centrifuged at 13,000 rpm for 1 minute to remove the supernatant, and total RNA was extracted using easy-BLUE™ Total RNA Extraction kit (iNtRON Biotechnology, Sungnam, Korea) to synthesize cDNA, and then the expression of the gingipain gene was confirmed by real-time PCR method. cDNA was synthesized using AccuPower® CycleScript RT PreMix dN6 (Bioneer, Daejeon, Korea), and real-time (quantitative) reverse transcription PCR (RT-qPCR) was carried out using Power SYBR™ Green PCR Master Mix (Applied Biosystems, Foster City, CA, USA).
RT-qPCR amplification conditions were as follows: after enzyme activation at 95° C. for 3 minutes, denaturation at 95° C. for 10 seconds and primer annealing at 60° C. for 30 seconds were repeated 40 times, and analysis was performed using a Bio-Rad CFX Connect Real-Time PCR Detection System (Bio-Rad, Hercules, CA, USA). To normalize the expression level of the gingipain gene, the 16s rRNA gene was used, and the gene expression level was calculated using the Comparative Ct Method (ΔΔCt), which is shown in FIGS. 5a to 5c.

P. gingivalis = assay: Inhibitory effect on P. gingivalis biofilm formation (crystal violet, OD590nm); format: cell-based, Porphyromonas gingivalis
[2] = Plasma stability in rat plasma (LC-MS/MS); format: in vitro ADME; conditions: 37° C., 0, 30, 60, 120, 240 minutes
Protocol: (§1) The compounds of Examples 1-2 and Comparative Example, and the substance used as the positive control (Eucatropine, Loterpresnol) were dissolved in DMSO to prepare a stock solution having a concentration of 10 mM. The stock solution of each test substance was then diluted to prepare 0.2 mM and 1 mM working solutions and used for the test (For the comparative example compound, 70% acetonitrile was used as a solvent, and for the compound of Example 1-2, 50% acetonitrile was used as a solvent).
(§2) The positive control and the standard solution of the test substance were placed in tubes containing two types of plasma (human and rat) at concentrations of 1 μM and 5 μM, respectively, and then incubated at 37° C. for a prescribed time (0, 30, 60, 120, 240 minutes) while shaking and mixing. At each time point, the mixture sample was dispensed in 100 μl increments into a cell culture plate (96-well plate) containing 400 μl of quench reagent to terminate the test, After centrifugation (5000×g, 10 min), 100 μl of the supernatant was taken out, mixed with 200 μl of ultrapure water, and the solution was then injected into a LC-MS/MS system to analyze the drug in each time zone. Thereby, the plasma stability of the compounds of Comparative Example and Example 1-2 was evaluated.

[3] = General symptoms and body weight in the rat micronucleus study; format: in vivo
Protocol: In addition, body weight was measured on the day of administration start and bone marrow collection to confirm presence/absence of changes due to administration of the substance, and the results are shown in Table 4 below.

[4] = test system: Sprague-Dawley rat bone marrow cells; assay: Rat micronucleus test; conditions: rat, in vivo
Protocol: Hair was removed from the administration site (subcutaneous) of the SD rats, the administration concentration of the example compounds were set to a low dose (500 mg/kg/day), a medium dose (1000 mg/kg/day), and a high dose (2000 mg/kg/day), and administered subcutaneously to the left and right […] of the test system (10 ml/kg/day each), and the compound was administered subcutaneously in divided doses to the left and right […] of the test system (10 ml/kg/day each).
24 hours after the second administration of the test substance, the femur was removed from each group to collect bone marrow cells. 0.5 mL of 10% neutral formalin was added to the bone marrow cell suspension, fixed for 5 minutes, centrifuged for 5 minutes (4° C., 1,000 rpm, Micro17TR, Hanil Science Industrial, Republic of Korea) to remove the supernatant. Then, 0.3 mL of 10% neutral formalin was added to the precipitated bone marrow cells, suspended, filtered through a cell strain, and transferred to a storage tube. The fixed bone marrow cell suspension was dropped onto a cover glass, and then covered with a slide glass coated with 20 μL of 0.05% acridine orange to prepare an observation slide. The observation slide was observed under a microscope (600× magnification, BX51, Olympus, Japan).
As an indicator of bone marrow cell proliferation inhibition, 500 total red blood cells per individual were observed, and the ratio of polychromatic red blood cells to total red blood cells (PCE/(PCE+NCE)) was calculated. As a positive control, cyclophosphamide (Cas No: 50-18-0) was administered at a dose of 20 mg/kg/day.

[5] = Plasma stability in human plasma (LC-MS/MS); format: in vitro ADME; conditions: 37° C., 0, 30, 60, 120, 240 minutes
Protocol: as §1, §2

Structure (SMILES): Cc1ccc(C(=C2c3ccccc3C(=O)N2C)c2ccc(C)cc2)cc1 [Example 1-2, 3-(di-p-tolylmethylene)-2-methylisoindolin-1-one]
- expression levels of three gingipain genes (rgpA, rgpB, kgp) increased by DPD [1]: reduced
- biofilm formation of P. gingivalis increased by DPD (P. gingivalis; DPD 10 μM + compound 0.002, 0.02, 0.2, 2 μM, 48 hours, anaerobic, OD590nm): inhibited in a concentration-dependent manner
- ability to inhibit biofilm formation of P. gingivalis at the same concentration (P. gingivalis; Example 1-2 against comparative example compound, 0.002-2 μM with DPD): better ability to inhibit biofilm formation than the comparative example compound
- amount of the compound remaining in the plasma [2]: remained stable
- Body weight (g) before 1st dosing ([3]; 500 mg/kg/day S.C., individual animals 1201-1205): 263.4 g
- Body weight (g) before 1st dosing ([3]; 1,000 mg/kg/day S.C., individual animals 1301-1305): 266.3 g and 251.3 g and 272.4 g
- Body weight (g) before 1st dosing, Mean ([3]; 2,000 mg/kg/day S.C., group mean): 266.9 g
- Body weight (g) before 1st dosing ([3]; 2,000 mg/kg/day S.C., individual animals 1401-1405): 266.2 g
- change in body weight compared to the negative control ([3]; all doses (500, 1000, 2000 mg/kg/day S.C.)): did not show a statistically significant change
- clinical signs in rats ([3]; all doses (500, 1000, 2000 mg/kg/day S.C.), observation period): no abnormal clinical signs
- ratio of polychromatic red blood cells to the total number of red blood cells, relative to negative control ([4]; Sprague-Dawley, 24 h): ≥ 20 % of the negative control
- appearance frequency of micronucleated polychromatic erythrocytes (MNPCE/PCE) compared to the negative control [4]: did not show a statistically significant difference
- amount of the compound remaining in the plasma [5]: remained stable
